{
  "source": "patent US20230131025A1",
  "about": "“QUINOLYL PHOSPHINE OXIDE COMPOUND, AND COMPOSITION AND APPLICATION THEREOF” (Betta Pharmaceuticals Co., Ltd., priority 2020, published 2023)",
  "key": {"Ba/F3 EGFR WT": {"molecular_target": "Ba/F3 EGFR WT (Homo sapiens, UniProt P00533)", "sequence (P00533 whole entry, stated change not applied)": "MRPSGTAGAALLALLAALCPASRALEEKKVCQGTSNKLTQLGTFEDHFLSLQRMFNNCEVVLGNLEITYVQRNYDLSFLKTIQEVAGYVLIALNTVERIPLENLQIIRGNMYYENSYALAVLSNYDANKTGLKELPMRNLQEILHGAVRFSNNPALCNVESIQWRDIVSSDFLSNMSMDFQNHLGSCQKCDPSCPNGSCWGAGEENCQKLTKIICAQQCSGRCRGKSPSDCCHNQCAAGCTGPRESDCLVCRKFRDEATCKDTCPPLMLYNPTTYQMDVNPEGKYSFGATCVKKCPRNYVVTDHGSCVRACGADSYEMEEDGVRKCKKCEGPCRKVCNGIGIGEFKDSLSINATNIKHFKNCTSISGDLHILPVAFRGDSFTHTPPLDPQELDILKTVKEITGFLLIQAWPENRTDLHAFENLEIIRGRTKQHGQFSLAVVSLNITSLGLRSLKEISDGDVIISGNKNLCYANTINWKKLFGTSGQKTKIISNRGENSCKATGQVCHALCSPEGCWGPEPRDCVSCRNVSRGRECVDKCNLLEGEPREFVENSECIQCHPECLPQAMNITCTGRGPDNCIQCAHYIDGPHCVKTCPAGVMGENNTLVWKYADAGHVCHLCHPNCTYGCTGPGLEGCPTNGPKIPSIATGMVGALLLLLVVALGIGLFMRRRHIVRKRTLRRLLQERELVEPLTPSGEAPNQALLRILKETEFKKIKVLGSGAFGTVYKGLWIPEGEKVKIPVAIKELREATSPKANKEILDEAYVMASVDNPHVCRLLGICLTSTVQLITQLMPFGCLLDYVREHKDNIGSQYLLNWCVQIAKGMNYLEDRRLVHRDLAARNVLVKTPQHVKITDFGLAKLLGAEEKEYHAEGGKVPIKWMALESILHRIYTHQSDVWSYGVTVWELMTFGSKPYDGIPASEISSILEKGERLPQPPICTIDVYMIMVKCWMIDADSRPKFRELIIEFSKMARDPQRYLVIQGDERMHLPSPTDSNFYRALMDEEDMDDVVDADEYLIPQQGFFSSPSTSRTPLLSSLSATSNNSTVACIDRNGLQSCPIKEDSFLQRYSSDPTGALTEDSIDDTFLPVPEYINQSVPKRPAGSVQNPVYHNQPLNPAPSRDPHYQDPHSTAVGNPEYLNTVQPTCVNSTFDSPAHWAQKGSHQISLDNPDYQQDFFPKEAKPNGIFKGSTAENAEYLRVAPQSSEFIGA", "test": "Cell proliferation experiment (CellTiter Glo, 72 hours)", "format": "cell-based", "details": "read-out: BaF3 EGFR WT IC50", "in_short": "(§1)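 Ba/F3 cells overexpressing EGFR Δ19del/T790M/C797S or EGFR WT were seeded at 2000 or 3000 cells/well and exposed 72 h to 9 compound concentrations (3-fold, top 10000 or 1111 nM final, 0.1% DMSO). CellTiter-Glo luminescence gave survival inhibition versus controls; IC50 from nonlinear fit.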"}, "Ba/F3-Δ19del/T790M/C797S": {"molecular_target": "Ba/F3-Δ19del/T790M/C797S (Homo sapiens, UniProt P00533, T790M/C797S, cells depend on it, form not given)", "sequence (P00533 with tags, fused parts or gaps DEL746-750/T790M/C797S, form open)": "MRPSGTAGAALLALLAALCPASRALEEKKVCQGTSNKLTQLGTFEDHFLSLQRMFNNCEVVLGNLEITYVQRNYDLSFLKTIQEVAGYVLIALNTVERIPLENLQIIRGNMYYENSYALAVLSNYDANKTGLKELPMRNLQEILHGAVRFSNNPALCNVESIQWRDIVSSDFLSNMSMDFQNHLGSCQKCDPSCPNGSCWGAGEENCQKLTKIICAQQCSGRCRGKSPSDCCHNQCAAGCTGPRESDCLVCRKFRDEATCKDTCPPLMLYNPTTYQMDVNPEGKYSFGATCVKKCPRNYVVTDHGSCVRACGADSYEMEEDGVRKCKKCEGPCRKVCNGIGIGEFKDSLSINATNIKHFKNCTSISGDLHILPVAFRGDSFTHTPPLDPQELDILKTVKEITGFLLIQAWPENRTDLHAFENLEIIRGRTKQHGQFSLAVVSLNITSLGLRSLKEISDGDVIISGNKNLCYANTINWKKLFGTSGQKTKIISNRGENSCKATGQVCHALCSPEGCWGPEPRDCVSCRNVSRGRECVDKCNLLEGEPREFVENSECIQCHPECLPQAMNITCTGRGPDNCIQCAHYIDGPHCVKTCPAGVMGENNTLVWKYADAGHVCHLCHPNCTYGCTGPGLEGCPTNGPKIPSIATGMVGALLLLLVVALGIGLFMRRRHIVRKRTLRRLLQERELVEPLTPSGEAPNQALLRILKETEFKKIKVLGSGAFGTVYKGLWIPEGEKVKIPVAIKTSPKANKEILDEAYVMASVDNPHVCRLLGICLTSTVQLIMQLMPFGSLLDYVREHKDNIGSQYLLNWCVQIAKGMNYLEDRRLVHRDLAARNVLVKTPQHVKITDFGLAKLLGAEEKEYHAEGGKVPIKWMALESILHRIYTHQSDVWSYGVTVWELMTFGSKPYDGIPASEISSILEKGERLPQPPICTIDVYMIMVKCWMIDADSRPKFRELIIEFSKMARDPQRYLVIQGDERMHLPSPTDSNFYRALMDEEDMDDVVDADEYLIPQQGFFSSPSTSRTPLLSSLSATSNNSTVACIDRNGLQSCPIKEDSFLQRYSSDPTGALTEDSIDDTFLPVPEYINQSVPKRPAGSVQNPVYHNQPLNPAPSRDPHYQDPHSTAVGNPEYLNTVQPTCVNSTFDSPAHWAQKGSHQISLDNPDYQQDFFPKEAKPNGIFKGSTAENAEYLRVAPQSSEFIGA", "test": "Cell proliferation experiment (CellTiter Glo, 72 hours)", "format": "cell-based", "details": "read-out: Ba/F3/EGFR Δ19del/T790M/C797S IC50", "in_short": "as §1"}, "[1]": {"test": "In vivo safety experiment (body weight, tolerance)", "method": "The safety evaluation of the drug was carried out in BALB/c nude mice. […] They were fed in an SPF environment, and each cage was individually ventilated (5 mice per cage). All cages, bedding and water were disinfected prior to use. Mice were purchased from Viton Lever and were allowed to acclimate in the laboratory. Mice were administered orally QD."}},
  "data": [
    {"smiles": "COc1cc(N2CCC(N3CCN(C)CC3)CC2)c(C)cc1Nc1ncc(Br)c(Nc2ccc3nc(C4CC4)ccc3c2P(C)(C)=O)n1", "note": "[Compound J-022, (6-((5-Bromo-2-((2-methoxy-5-methyl-4-(4-(4-methylpiperazin-1-yl)piperidin-1-yl)phenyl)amino)pyrimidin-4-yl)amino)-2-cyclopropylquinolin-5-yl)dimethylphosphine oxide]", "values": [
      {"measurement": "GI50", "setting": "Ba/F3 EGFR WT", "result": 151, "unit": "nM"},
      {"measurement": "GI50", "setting": "Ba/F3-Δ19del/T790M/C797S", "result": 6.8, "unit": "nM"},
      {"measurement": "Body weight of mouse", "setting": "[1]; 75 mg/kg/day oral QD, 0 days", "result": 18.7, "unit": "g"},
      {"measurement": "Body weight of mouse", "setting": "[1]; 75 mg/kg/day oral QD, 2 days", "result": 18.9, "unit": "g"},
      {"measurement": "Body weight of mouse", "setting": "[1]; 75 mg/kg/day oral QD, 4 days", "result": 19.2, "unit": "g"},
      {"measurement": "Body weight of mouse", "setting": "[1]; 75 mg/kg/day oral QD, 6 days", "result": 19.4, "unit": "g"},
      {"measurement": "Body weight of mouse", "setting": "[1]; 100 mg/kg/day oral QD, 0 days", "result": 18.7, "unit": "g"},
      {"measurement": "Body weight of mouse", "setting": "[1]; 100 mg/kg/day oral QD, 2 days", "result": 18.6, "unit": "g"},
      {"measurement": "Body weight of mouse", "setting": "[1]; 100 mg/kg/day oral QD, 4 days", "result": 19.0, "unit": "g"},
      {"measurement": "Body weight of mouse", "setting": "[1]; 100 mg/kg/day oral QD, 6 days", "result": 19.2, "unit": "g"},
      {"measurement": "Body weight of mouse", "setting": "[1]; 150 mg/kg/day oral QD, 0 days", "result": 18.7, "unit": "g"},
      {"measurement": "Body weight of mouse", "setting": "[1]; 150 mg/kg/day oral QD, 2 days", "result": 18.3, "unit": "g"},
      {"measurement": "Body weight of mouse", "setting": "[1]; 150 mg/kg/day oral QD, 4 days", "result": 18.5, "unit": "g"},
      {"measurement": "Body weight of mouse", "setting": "[1]; 150 mg/kg/day oral QD, 6 days", "result": 18.4, "unit": "g"},
      {"measurement": "Change in the body weight of mice", "setting": "[1]; 150 mg/kg/day oral, 7 days", "result": "no significant change"},
      {"measurement": "Tolerability", "setting": "[1]; 150 mg/kg/day, 7 days", "result": "tolerable"},
      {"measurement": "window from the effective dose to the intolerance dose", "setting": "[1]; effective dose = dose corresponding to 50% TGI", "result": "greater than 15 times"}
    ]}
  ]
}
